Experimental data published in patent US20240409556A1, “BENZOPIPERAZINE AND RELATED ANALOGS FOR INHIBITING YAP/TAZ-TEAD” (Springworks Therapeutics, Inc., priority 2023, published 2024).

Key:
Type in all cases: cell-based
[1] = test system: NCI-H2052 mesothelioma cell line; test: Mesothelioma cell line proliferation assay, NCI-H2052 (ATPlite); conditions: NCI-H2052 cells, 6 days with compound, cell viability by ATPlite
Protocol: (§1) Example 57: Activity of Compounds of the Disclosure in Mesothelioma Cell Line Proliferation Assays
(§2) Mesothelioma cell lines, NCI-H226 and NCI-H2052 (both sourced from the ATCC cell culture collection) were plated in 96-well plates (Corning® 96 Well White Polystyrene Microplate clear flat bottom, white polystyrene (TC-Treated)), at 1500 cells/well in full medium (RPMI 1640 ATCC modification with L-glutamine, HEPES, Phenol Red, Sodium Pyruvate, High glucose, Low sodium bicarbonate and 10% fetal bovine serum). Cells were incubated overnight at 37° C. in an incubator with 5% CO2. Then compounds, dissolved in DMSO, were added in dose-response. Cells were incubated with compound dilutions for another 6 days at 37° C. in an incubator with 5% CO2. Cell viability was quantitated using the ATPlite kit (Perkin-Elmer) and the luminescence was read-out using an Envision instrument (Perkin-Elmer). The amount of relative light units produced using the ATPlite kit was used to calculate percent of inhibition.
(§3) The activities of some example compounds are depicted in Table 4. The activity ranges A, B and C refer to EC50 values in the mesothelioma cell line proliferation assay as described as follows: “A”: EC50<1 μM; “B”: 1 μM≤EC50≤10 μM and “C”: EC50>10 μM; NT: not tested.

[2] = test system: NCI-H226 mesothelioma cell line; test: Mesothelioma cell line proliferation assay, NCI-H226 (ATPlite); conditions: NCI-H226 cells, 6 days with compound, cell viability by ATPlite
Protocol: as §1, §2, §3

[3] = test system: YAP/TAZ-TEAD transcription; test: Reporter gene assay for measuring the inhibition of YAP/TAZ-TEAD transcription (TEAD-responsive element luciferase reporter in Hek293T cells); conditions: 24 hours incubation
How it was run: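 HEK293T cells transiently transfected with a TEAD-responsive luciferase reporter were exposed to compounds for 24 h at 37° C/5% CO2, then luminescence was read. Percent inhibition normalised to vehicle (0%) and positive-control inhibitor (100%); IC50 derived.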

SMILES	EC50 [2]	IC50 [3]	EC50 ([1]; Homo sapiens, 144 h)	EC50 ([2]; Homo sapiens, 144 h)	other results
C=CC(=O)NCC1CN(c2ccc(C(F)(F)F)cc2)c2cccnc2O1 (centres unmarked) [48-En2, N-((1-(4-(trifluoromethyl)phenyl)-2,3-dihydro-1H-pyrido[2,3-b][1,4]oxazin-3-yl)methyl)acrylamide]	< 1000 nM	–	–	–	EC50 [1]: < 1000 nM
CC(=O)N1CCN2c3ccccc3N(c3ccc(C(F)(F)F)cc3)CC2C1 (single isomer, unassigned) [15-En2, (R)- or (S)-1-(6-(4-(trifluoromethyl)phenyl)-1,2,4,4a,5,6-hexahydro-3H-pyrazino[1,2-a]quinoxalin-3-yl)ethan-1-one]	< 1000 nM	< 1000 nM	–	–	EC50 [1]: < 1000 nM
CC(=O)NCC1CN(c2ccc(C(F)(F)F)cc2)c2cc(Cl)cnc2O1 (single isomer, unassigned) [75-En2, (R)- or (S)-N-((7-chloro-1-(4-(trifluoromethyl)phenyl)-2,3-dihydro-1H-pyrido[2,3-b][1,4]oxazin-3-yl)methyl)acetamide]	–	< 1000 nM	< 1000 nM	< 1000 nM	–
C=CC(=O)NCC1CN(c2ccc(C(F)(F)F)cc2)c2cccnc2N1C (single isomer, unassigned) [27-En2]	< 1000 nM	< 1000 nM	–	–	EC50 [1]: < 1000 nM
CC(=O)NCC1CN(c2ccc(C(F)(F)F)cc2)c2ccc(N(C)C)nc2O1 (single isomer, unassigned) [87-En1, (R)- or (S)-N-((6-(dimethylamino)-1-(4-(trifluoromethyl)phenyl)-2,3-dihydro-1H-pyrido[2,3-b][1,4]oxazin-3-yl)methyl)acetamide]	–	< 1000 nM	< 1000 nM	< 1000 nM	–
NC(=O)C1CCN2c3ccccc3N(c3ccc(C(F)(F)F)cc3)CC2C1 (stereo not drawn) [117B-En2, (cis)- or (trans)-5-(4-(trifluoromethyl)phenyl)-6,6a,7,8,9,10-hexahydro-5H-pyrido[1,2-a]quinoxaline-8-carboxamide]	–	< 1000 nM	< 1000 nM	< 1000 nM	–
O=C(O)C1CCN2c3ccccc3N(c3ccc(C(F)(F)F)cc3)CC2C1 (stereo not drawn) [65B, (cis)- or (trans)-5-(4-(trifluoromethyl)phenyl)-6,6a,7,8,9,10-hexahydro-5H-pyrido[1,2-a]quinoxaline-8-carboxylic acid]	–	–	< 1000 nM	< 1000 nM	–
CC(=O)NCC1CN(c2ccc(C(F)(F)F)cc2)c2ccccc2N1 (single isomer, unassigned) [34-En2, (R)- or (S)-N-((4-(4-(trifluoromethyl)phenyl)-1,2,3,4-tetrahydroquinoxalin-2-yl)methyl)acetamide]	< 1000 nM	–	–	–	IC50 ([3]; Homo sapiens, HEK-293T, 24 h): < 1000 nM
C=CC(=O)NCC1CN(c2ccc(C(F)(F)F)cc2)c2cccnc2O1 (centres unmarked) [48-En1, N-((1-(4-(trifluoromethyl)phenyl)-2,3-dihydro-1H-pyrido[2,3-b][1,4]oxazin-3-yl)methyl)acrylamide]	–	–	< 1000 nM	< 1000 nM	–
CC(=O)NCC1CN(c2ccc(C(F)(F)F)cc2)c2ccccc2O1 (single isomer, unassigned) [36-En1, (R)- or (S)-N-((4-(4-(trifluoromethyl)phenyl)-3,4-dihydro-2H-benzo[b][1,4]oxazin-2-yl)methyl)acetamide]	< 1000 nM	< 1000 nM	–	–	–
CNS(=O)(=O)N1CCN2c3ccccc3N(c3ccc(C(F)(F)F)cc3)CC2C1 (single isomer, unassigned) [32-En2, (R)- or (S)-N-methyl-6-(4-(trifluoromethyl)phenyl)-1,2,4,4a,5,6-hexahydro-3H-pyrazino[1,2-a]quinoxaline-3-sulfonamide]	< 1000 nM	< 1000 nM	–	–	–
Cc1nc[nH]c1CN1CCN(c2ccc(C(F)(F)F)cc2)c2ccccc21 [compound 66, 1-((4-methyl-1H-imidazol-5-yl)methyl)-4-(4-(trifluoromethyl)phenyl)-1,2,3,4-tetrahydroquinoxaline]	–	–	–	–	IC50 ([3]; Homo sapiens, HEK-293T, 24 h): < 1000 nM
CC1(C(=O)O)CCN2c3ccccc3N(c3ccc(C(F)(F)F)cc3)CC2C1 [115-D1, (6aS,8S)— or (6aR,8S)— or (6aR,8R)— or (6aS,8R)-8-methyl-5-(4-(trifluoromethyl)phenyl)-6,6a,7,8,9,10-hexahydro-5H-pyrido[1,2-a]quinoxaline-8-carboxylic acid]	–	1000 to 10000 nM	–	–	–
O=C(O)C1CCN2c3cc(Cl)ccc3N(c3ccc(C(F)(F)F)cc3)CC2C1 (stereo not drawn) [compound 106, (cis)- or (trans)-2-chloro-5-(4-(trifluoromethyl)phenyl)-6,6a,7,8,9,10-hexahydro-5H-pyrido[1,2-a]quinoxaline-8-carboxylic acid]	–	–	–	–	IC50 ([3]; Homo sapiens, HEK-293T, 24 h): < 1000 nM
CC(=O)NCC1CN(c2ccc(C(F)(F)F)cc2)c2ccc(C)nc2O1 (single isomer, unassigned) [77-En2, (R)- or (S)-N-((6-methyl-1-(4-(trifluoromethyl)phenyl)-2,3-dihydro-1H-pyrido[2,3-b][1,4]oxazin-3-yl)methyl)acetamide]	–	< 1000 nM	–	–	–
C=CC(=O)N1CCN2c3ncccc3N(c3ccc(C(F)(F)F)cc3)CC2C1 (centres unmarked) [28-En1, 1-(5-(4-(trifluoromethyl)phenyl)-5,6,6a,7,9,10-hexahydro-8H-pyrazino[1,2-a]pyrido[3,2-e]pyrazin-8-yl)prop-2-en-1-one]	–	–	–	–	IC50 ([3]; Homo sapiens, HEK-293T, 24 h): < 1000 nM
CC(=O)NCC1CN(c2ccc(C(F)(F)F)cc2)c2ccc(C(F)(F)F)nc2O1 (centres unmarked) [compound 76, N-((6-(trifluoromethyl)-1-(4-(trifluoromethyl)phenyl)-2,3-dihydro-1H-pyrido[2,3-b][1,4]oxazin-3-yl)methyl)acetamide]	–	–	–	–	IC50 ([3]; Homo sapiens, HEK-293T, 24 h): 1000 to 10000 nM

Further lines, with some results ahead:

EC50 [2]	IC50 [3]	EC50 ([1]; Homo sapiens, 144 h)	EC50 ([2]; Homo sapiens, 144 h)	SMILES	other results
–	< 1000 nM	< 1000 nM	< 1000 nM	CC(=O)N1CCN2c3nccnc3N(c3ccc(C(F)(F)F)cc3)CC2C1 (single isomer, unassigned) [40-En1, (R)- or (S)-1-(5-(4-(trifluoromethyl)phenyl)-5,6,6a,7,9,10-hexahydro-8H-dipyrazino[1,2-a:2′,3′-e]pyrazin-8-yl)ethan-1-one]	–
< 1000 nM	< 1000 nM	–	–	C=CC(=O)N1CCN2c3ccccc3N(c3ccc(C(F)(F)F)cc3)CC2C1 (single isomer, unassigned) [14-En2, (R)- or (S)-1-(6-(4-(trifluoromethyl)phenyl)-1,2,4,4a,5,6-hexahydro-3H-pyrazino[1,2-a]quinoxalin-3-yl)prop-2-en-1-one]	EC50 [1]: < 1000 nM
< 1000 nM	–	–	–	C=CC(=O)N1CCN2c3ccccc3N(c3ccc(C(F)(F)F)cc3)CC2C1 (centres unmarked) [compound 14, 1-(6-(4-(trifluoromethyl)phenyl)-1,2,4,4a,5,6-hexahydro-3H-pyrazino[1,2-a]quinoxalin-3-yl)prop-2-en-1-one]	IC50 ([3]; Homo sapiens, HEK-293T, 24 h): < 1000 nM
–	–	< 1000 nM	< 1000 nM	O=C(O)C1CCN2c3ncccc3N(c3ccc(C(F)(F)F)cc3)CC2C1 [96B-En1, (6aS,8S)- or (6aR,8S)- or (6aR,8R)- or (6aS,8R)-5-(4-(trifluoromethyl)phenyl)-6,6a,7,8,9,10-hexahydro-5H-dipyrido[1,2-a:3′,2′-e]pyrazine-8-carboxylic acid]	–
–	–	< 1000 nM	< 1000 nM	C=CC(=O)N1CCN2c3nccnc3N(c3ccc(C(F)(F)F)cc3)CC2C1 (centres unmarked) [41-En1, 1-(5-(4-(trifluoromethyl)phenyl)-5,6,6a,7,9,10-hexahydro-8H-dipyrazino[1,2-a:2′,3′-e]pyrazin-8-yl)prop-2-en-1-one]	–
< 1000 nM	–	–	–	C=CC(=O)N1CCN2c3nccnc3N(c3ccc(C(F)(F)F)cc3)CC2C1 (centres unmarked) [41-En2, 1-(5-(4-(trifluoromethyl)phenyl)-5,6,6a,7,9,10-hexahydro-8H-dipyrazino[1,2-a:2′,3′-e]pyrazin-8-yl)prop-2-en-1-one]	EC50 [1]: < 1000 nM
